pKi: −log10 of the molar value. Values joined by “and” are separate entries in the source; they are usually repeats but may differ in a detail not shown here. Equal values may be shown once.

Broadly, the pKi is the Ki on a negative log10 scale, so that one unit is a factor of ten. Read a high pKi as a low Ki.

For the assay, the target named is C-C chemokine receptor type 2 (Homo sapiens, UniProt P41597). Briefly: Antagonist activity at human CCR2 receptor.
C-C chemokine receptor type 2, sequence (P41597 whole entry): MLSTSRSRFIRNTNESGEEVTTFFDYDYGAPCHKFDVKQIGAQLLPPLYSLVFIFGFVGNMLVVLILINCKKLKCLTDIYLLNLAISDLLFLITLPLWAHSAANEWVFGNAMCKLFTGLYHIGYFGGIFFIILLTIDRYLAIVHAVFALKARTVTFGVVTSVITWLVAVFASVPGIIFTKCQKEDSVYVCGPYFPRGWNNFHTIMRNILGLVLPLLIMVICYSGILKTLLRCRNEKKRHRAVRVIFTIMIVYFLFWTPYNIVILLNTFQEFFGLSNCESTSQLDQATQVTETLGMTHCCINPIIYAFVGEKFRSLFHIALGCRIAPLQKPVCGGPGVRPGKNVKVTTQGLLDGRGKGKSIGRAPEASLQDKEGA
Turning to `CCCCc1ccc(/C=C/C(=O)NCCCCCN2CCC(c3c[nH]c4ccccc34)CC2)cc1`, the pKi is 5.77.
Regarding `O=C(/C=C/c1ccc(Br)cc1)NCCCCCN1CCC(c2c[nH]c3ccccc23)CC1`, the pKi was 6.45.
The compound `O=C(/C=C/c1ccc(Cl)c(Cl)c1)NCCCCCN1CCC(c2c[nH]c3ccccc23)CC1` showed a pKi of 6.37.
Compound `O=C(/C=C/c1ccc(I)cc1)NCCCCCN1CCC(c2c[nH]c3ccccc23)CC1` showed a pKi of 6.33.
For `CC(=O)Nc1ccc(/C=C/C(=O)NCCCCCN2CCC(c3c[nH]c4ccccc34)CC2)cc1` the value was 4.89; for `O=C(NCCCCCN1CCC(c2c[nH]c3ccccc23)CC1)Nc1ccc(Cl)c(Cl)c1`, 5.79; for `Cc1ccc(/C=C/C(=O)NCCCCCN2CCC(c3c[nH]c4ccccc34)CC2)cc1`, 6.25.
`O=C(NCCCCCN1CCC(c2c[nH]c3ccccc23)CC1)c1ccc(Br)cc1`: the pKi is 5.14.
The result for `O=C(/C=C/c1ccc(-c2ccccc2)cc1)NCCCCCN1CCC(c2c[nH]c3ccccc23)CC1` reads 5.83.
For the compound `O=C(Cc1ccc(Cl)c(Cl)c1)NCCCCCN1CCC(c2c[nH]c3ccccc23)CC1`, the pKi is 5.35.
As for `O=C(NCCCCCN1CCC(c2c[nH]c3ccccc23)CC1)c1ccc(-c2ccccc2)cc1`, the pKi is 5.26.
Compound `O=C(/C=C/c1ccccc1Cl)NCCCCCN1CCC(c2c[nH]c3ccccc23)CC1` had a pKi of 5.35.
As to `O=C(/C=C/c1ccc(Cl)c(Cl)c1)N[C@H]1CC[C@H](CN2CCC(c3c[nH]c4ccccc34)CC2)CC1`, the pKi is 6.20 and 6.19.

The values above are taken from ChEMBL document CHEMBL1141481, “Probing the structural and topological requirements for CCR2 antagonism: holographic QSAR for indolopiperidine derivatives” (Bioorg Med Chem Lett, 2008).
